Paper PMC12345723, “Valorization of Coffee Silverskin via Integrated Biorefinery for the Production of Bioactive Peptides and Xylooligosaccharides: Functional and Prebiotic Properties” (Foods, 2025)
Marks after values point to notes of the source that are not given here.

Key:
RAW 264.7 macrophages = settings: cited from earlier work
Method: A peptide concentration of 200 µg/mL was selected based on preliminary cytotoxicity screening using RAW 264.7 macrophage cells, which confirmed that this dose was non-toxic under the experimental conditions.

[1] = ABTS radical scavenging assay; settings: for Antioxidant Activity: ABTS, peptide 500 μM (table footnote), 30 min, absorbance 734 nm, mean ± SD, n = 3
Method: Antioxidant activity analysis was performed in the dark. DPPH, ABTS radical scavenging activity, and the ferric-reducing antioxidant power (FRAP) assay were determined following the method described by Jirarat et al. (2024). Concisely, samples were diluted using distilled water to the desired concentration. For the DPPH assay, a 500 μL sample was mixed with 500 μL of ethanolic DPPH solution (80 mg/L) for 60 min before measuring the absorbance at 517 nm. The ABTS radical (ABTS+) solution was prepared by incubating the mixture of 2.45 mM potassium persulfate solution and 7 mM ABTS solution (1:1, v/v) for 12–16 h. The deionized water was used for diluting the ABTS^+ solution to 0.70 ± 0.02 at an absorbance of […]. After that, the ABTS assay was performed by incubating a 50 μL sample with 850 μL of prepared ABTS^+ solution for 30 min, and the radical scavenging activity was determined by measuring the absorbance at 734 nm. Furthermore, the FRAP assay was performed by preparing the FRAP reagent, which consisted of 300 mM acetate buffer (pH 3.6), 20 mM FeCl3·6H2O, and 10 mM TPTZ in 40 mM HCl, mixed in a 10:1:1 volume ratio. Then, 100 μL of the sample was mixed with 900 μL the FRAP reagent and incubated for 30 min. […] The antioxidant capacity in all assays was expressed as micromoles of Trolox equivalents per liter (μmol TE/L) based on a Trolox standard curve.

RAW 264.7 cells = settings: RAW 264.7, 24 h, 0–200 µg/mL, SRB assay
Method: The cytotoxicity of synthetic bioactive peptides was evaluated using the sulforhodamine B (SRB) colorimetric assay, as described by Vichai and Kirtikara. Briefly, RAW 264.7 murine macrophage cells were seeded at a 2 × 10^4 cells/well density in 96-well plates and incubated for 24 h. The cells were then treated with various concentrations of peptides (0–200 μg/mL) for an additional 24 h. After treatment, the cells were fixed with cold trichloroacetic acid (TCA) and stained with 0.4% (w/v) SRB in 1% (v/v) acetic acid. Unbound dye was removed by washing, and protein-bound SRB was solubilized using […] Tris base solution. Absorbance was measured at 520 nm using a microplate reader, and cell viability was calculated as a percentage relative to untreated control cells. Non-cytotoxic concentrations of the peptides were subsequently used for further investigation of their anti-inflammatory effects on LPS-induced nitric oxide (NO) production in RAW 264.7 cells.

[2] = tested on: Dipeptidyl Peptidase-IV (DPP-IV); settings: peptide 5000 μM; Gly-Pro-p-nitroanilide, Tris-HCl pH 8.0, 37 °C, 60 min; absorbance 385 nm; mean ± SD, n = 3
Method: The DPP-IV inhibitory activity was determined using a modified method based on Lacroix and Li-Chan [22]. Briefly, the synthetic peptide was diluted in 100 mM Tris-HCl buffer (pH 8.0) to a final concentration of 5000 μM. The reaction mixture was prepared in a 1.5 mL microcentrifuge tube by combining 75 μL of Gly-Pro-p-nitroanilide (1.59 mM), 50 μL of Tris-HCl buffer (pH 8.0), and 25 μL of the peptide sample. The mixture was pre-incubated at 37 °C for 10 min. Following pre-incubation, 50 μL of DPP-IV enzyme solution (0.01 U/mL) was added, and the reaction was incubated at 37 °C for 60 min. The reaction was terminated by adding 300 μL of 99.8% ethanol. The absorbance of the reaction mixture was measured at 385 nm, and the DPP-IV inhibitory activity was calculated and expressed as a percentage of inhibition.
ACE inhibitory activity was assessed at a peptide concentration of 500 μM, while DPP-IV inhibitory activity and antioxidant activity (ABTS radical scavenging assay) were evaluated at a concentration of 5000 μM.

Row | Substance | cytotoxic effects (RAW 264.7 macrophages) | Antioxidant Activity [1] | cytotoxicity (RAW 264.7 cells) | DPP-IV Inhibition [2] | ABTS radical scavenging activity ([1]; peptide 5000 μM as printed in the text)
1 | DYKKY [peptide derived from whey protein hydrolysates] | no cytotoxic effects |  |  |  | 
2 | FDYGKY [phenylalanine-aspartic acid-tyrosine-glycine-lysine-tyrosine] |  | 50 ± 1 ^a % | non-toxic | 0% | 
3 | FLGY [phenylalanine-leucine-glycine-tyrosine] |  | 48 ± 1 ^a % | non-toxic | 19 ± 1 ^a % | 48%
4 | GTWY [peptide derived from whey protein hydrolysates] | no cytotoxic effects |  |  |  | 
5 | phenylalanine-tyrosine-aspartic acid-threonine-tyrosine-tyrosine [FYDTYY] |  |  | non-toxic | 18 ± 3 ^a % | 
